# According to US11731946B2, “Broad spectrum antivirulence, anti-persistence compounds” (priority 2017, dated 2023):
# “And” between values parts separate entries of the source, which are not always exact repeats. Equal values may be shown once. “Also recorded” adds a separate entry of the source.
# What was measured:
# MvfR = target: T1, MvfR (Pseudomonas aeruginosa, UniProt Q9I4X0); test: Surface plasmon resonance (SPR) binding to purified MvfR co-inducer binding domain; parameters: species or system P. aeruginosa
# T1 construct: made in house
# T1 sequence (Q9I4X0 91-332): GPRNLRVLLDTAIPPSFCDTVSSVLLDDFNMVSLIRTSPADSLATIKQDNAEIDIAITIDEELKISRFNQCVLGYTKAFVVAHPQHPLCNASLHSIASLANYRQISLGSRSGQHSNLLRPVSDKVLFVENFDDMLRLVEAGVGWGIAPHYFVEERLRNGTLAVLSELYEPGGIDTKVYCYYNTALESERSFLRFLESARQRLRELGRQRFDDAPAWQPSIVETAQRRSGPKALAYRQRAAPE
# Method: Compounds identified to interfere with MvfR were confirmed for the direct physical interaction with this protein. Using SPR, the percentage of compound's binding to the purified MvfR protein was analyzed and used to determine the binding parameters (KD, kon and koff)—thus determining the kinetic of interaction with MvfR.
# The recombinant MvfR co-inducer binding domain was purified using Ni-NTA chromatography, as previously reported (see e.g., Xiao et al, Microbiology, 2006, 152:1679-1686; Starkey et al, PLoS Pathog. 2014, 10:e1004321; and Kefala et al, Acta. Crystallogr. Sect. F. Struct. Biol. Cryst. Commun. 2012, 68:695-697). The purified protein was immobilized with the amine coupling method at a target level of 5000 RU on Chip. SPR was performed according to previously reported procedures (see e.g., Starkey et al, PLoS Pathog. 2014, 10:e1004321; Maura et al, ACS Chemical Biology, 2017, 12:1435-1443; and Kitao et al, MBIO, in press). […] Table 3 lists the steady-state KD data measured by SPR.
# [1] = Pharmacokinetics in mouse plasma and lung after single subcutaneous injection; assay type: in vivo, mice; conditions: for stability in vivo (serum concentration): 10 mg/kg subcutaneous, over 24 h
# Method: FIGS. 1F-1G show pharmacokinetics measured in mouse plasma (FIG. 1F) and lung (FIG. 1G) following a single subcutaneous injection of Compounds 53, 54, or 72 at 10 mg/kg.
# [2] = test system: Caco2 intestinal epithelial cells; test: Survival of Caco2 cells after compound exposure; assay type: cell-based; conditions: 25 μM, 3 hours exposure
# MvfR regulon [3] = test: Quantification of pyocyanin (OD520nm of chloroform-extracted cultures); assay type: cell-based, P. aeruginosa; conditions: Pseudomonas aeruginosa; for IC50: read-out: IC50 pyocyanin (μM); for activity at 50 µM: read-out: pyocyanin @50 uM (%), compound at 50 uM
# MvfR regulon [4] = test: pqsA gene expression (pqsA-GFP reporter); assay type: cell-based, P. aeruginosa; conditions: Pseudomonas aeruginosa; for activity at 10 µM: read-out: pqsA @10 uM (%), compound at 10 uM
# PA14 = test: Antibiotic tolerance/persister (AT/P) cell formation, meropenem, CFU plating; assay type: cell-based, P. aeruginosa; conditions: 50 μM compound
# Method: Wild type (PA14) P. aeruginosa was grown in liquid culture with or without Compound 54 and treated with meropenem according to published procedures (see e.g., Starkey et al, PLoS Pathog. 2014, 10:e1004321). Data are expressed as fraction of original culture surviving antibiotic treatment.
# (§1) AT/P efficacy of compounds using CFU plating was assessed by growning over-night, cultures diluted 1:100 in triplicate in fresh LB medium in the presence or absence of inhibitor, and re-grown to an OD600 of 2.0 while shaking under aeration at 37° C. Before the antibiotic treatment, aliquots were plated to obtain reference colony counts. […] At 24-h and 48-h time points, the number of surviving bacteria were assessed by plating. The survival fraction of AT/P cells was calculated by dividing the number of surviving bacteria by the number of live bacteria that were present before the antibiotic treatment (reference datum) and expressed as a mean (±SD) of at least three replicate experiments. Using the same CFU plating assay, the efficacy of all compounds identified will be tested against additional antibiotic classes: b-lactams (ceftazidime, cefepime and imipenem), quinolones (ciprofloxacin, moxifloxacin, and levofloxacin), and aminoglycosides (gentamicin and tobramycicn).
# MvfR regulon [5] = test: LC/MS quantification of HAQs and related molecules in bacterial culture supernatants; assay type: cell-based, P. aeruginosa; conditions: Pseudomonas aeruginosa
# [6] = test system: adhesive intestinal E. coli; test: Activity against other bacterial pathogens (preliminary); assay type: cell-based
# [7] = test system: Pseudomonas aeruginosa MDR clinical isolates; test: Pyocyanin production in MDR clinical isolates; assay type: cell-based; conditions: 10 μM; listed as D88
# Method: Percentage of pyocyanin production is presented in presence of 10 μM of D57 or D88 compounds. Tukey's multiple comparisons test p<0.0001.
# Pyocyanin levels were determined by measuring OD520nm of chloroform-extracted cultures.
# Solubility = assay type: physicochemical; conditions: initial solubility studies; listed as D88
# Source text: FIGS. 6A-6E show pharmacological properties of a representative group of MvfR inhibitors.
# PA clinical isolate PA14 = test: Biofilm formation (microtiter biofilm assay); assay type: cell-based, P. aeruginosa; conditions: 10 μM
# Method: (§2) Statistical significance to the control was assessed using one-way ANOVA+Dunnett's post-test. P<0.001-0.005.
# Inhibition of biofilm formation was assessed by quantifying initiation of biofilm formation via assessment of surface adhesion of PA using the microtiter biofilm assay as described in O'Toole, G A. J. Vis. Exp. 2011, Microtiter Dish Biofilm Formation Assay. Using single optimized agents, this assay allowed for various concentrations of each compound and several incubation times to be investigated in an HTS manner.
# [8] = test system: P. aeruginosa MDR clinical isolates; test: AT/P cell formation in MDR clinical isolates; assay type: cell-based; conditions: 10 μM; MDR clinical isolates incl. mucoid strain from CF patients
# Method: as §2, §1
# Acenitobacter baumanii = test: Activity against other bacterial pathogens (preliminary); assay type: cell-based
# [9] = mean KD value, SPR, mean over the compounds named
structure (smiles),measurement,setting,value
N#Cc1ccc(NC(=O)CC(=O)Nc2ccc(Cl)cc2)cc1 [Compound 53],binding to MvfR (in words),MvfR; FIG. 1B,high affinity
same,Signal Intensity Rmax,MvfR; SPR,26.52
same,binding intensity relative to parent Compound 1,MvfR; SPR,40 times
same,Kd,"MvfR; Steady State Binding Affinity KD (μM), SPR, steady state",0.244 µM
same,Kd,"MvfR; Steady State Binding Affinity KD [M], SPR, steady state",0.244 µM
same,Kd,MvfR; [9],~0.25 µM and 0.25 µM
same,stability in vivo (serum concentration),[1],stable in vivo
same,stability in vivo (serum concentration),[1]; listed as D41,highly stable in vivo
same,pharmacokinetics (in words),"[1]; mouse, in vivo",promising pharmacokinetics
same,toxicity to Caco2 (survival),[2],not toxic
same,IC50,MvfR regulon [3],2.4 µM
same,activity at 50 µM,MvfR regulon [3],6.23%
same,IC50,MvfR regulon [4]; read-out: IC50 pqsA (μM),1.25 µM
same,activity at 10 µM,MvfR regulon [4],1.55%
same,activity at 50 µM,"MvfR regulon [4]; read-out: pqsA @50 uM (%), compound at 50 uM",7.97%
same,inhibition of persistence,PA14,inhibit persistence
same,IC50,"MvfR regulon [5]; PA14, read-out: IC50 2-AA (μM)",5.6 µM
same,IC50,"MvfR regulon [5]; PA14, read-out: IC50 DHQ (μM)",9.1 µM
same,IC50,"MvfR regulon [5]; PA14, read-out: IC50 HHQ (μM)",10.3 µM
same,IC50,"MvfR regulon [5]; PA14, read-out: IC50 PQS (μM)",8.3 µM
same,activity at 50 µM,MvfR regulon [5]; read-out: 2-AA @50 uM,5.87%
same,activity at 50 µM,MvfR regulon [5]; read-out: AA @50 uM,739%
same,activity at 50 µM,MvfR regulon [5]; read-out: DHQ @50 uM,10.3%
same,activity at 50 µM,MvfR regulon [5]; read-out: HHQ @50 uM (%),1.63%
same,activity at 50 µM,MvfR regulon [5]; read-out: HQNO @50 uM (%),13.9%
same,IC50,MvfR regulon [5]; read-out: IC50 AA (increase; μM),14.5 µM
same,IC50,MvfR regulon [5]; read-out: IC50 HQNO (μM),7.3 µM
same,activity at 50 µM,MvfR regulon [5]; read-out: PQS @50 uM (%),8.37%
N#Cc1ccc(NC(=O)C(F)C(=O)Nc2ccc(Oc3ccccc3)cc2)cc1 (stereo not shown) [Compound 103],Kd,MvfR; [9],0.25 µM
same,potency against adhesive intestinal E. coli,[6],potent
same,IC50,MvfR regulon [3],0.95 µM
same,activity at 1 µM,"MvfR regulon [3]; read-out: pyocyanin @1 uM (%), compound at 1 uM",28.1%
same,activity at 10 µM,"MvfR regulon [3]; read-out: pyocyanin @10 uM (%), compound at 10 uM",4.4%
same,activity at 50 µM,MvfR regulon [3],5.58%
same,activity on pyocyanin production in MDR clinical isolates,[7],highly active; also recorded: confirmed
same,solubility,Solubility,0.190 mg/mL
same,activity against biofilm formation,PA clinical isolate PA14,highly active
same,activity at 10 µM,MvfR regulon [4],1.95%
same,activity against antibiotic tolerant/persister cell formation,[8],highly active
same,potency against Acenitobacter baumanii,Acenitobacter baumanii,potent
